Measurements: ChEMBL document CHEMBL4507276 (2021)

What was measured:
[1] = target: B2 bradykinin receptor (Homo sapiens) (UniProt P30411); test: B2/HUM Cerep selectivity data (BI); details: Compound concentration 20.0 uM
[2] = target: Cannabinoid receptor 1 (Homo sapiens) (UniProt P21554); test: CB1/CENTR/H Cerep selectivity data (BI); details: Compound concentration 20.0 uM
[3] = target: Tyrosine-protein kinase Fer (Homo sapiens) (UniProt P16591); test: FER Invitrogen selectivity data (BI); details: Compound concentration 3.0 uM
[4] = target: Homeodomain-interacting protein kinase 1 (Homo sapiens) (UniProt Q86Z02); test: HIPK1 Invitrogen selectivity data (BI); details: Compound concentration 3.0 uM
[5] = target: LIM domain kinase 1 (Homo sapiens) (UniProt P53667); test: LIMK1 Invitrogen selectivity data (BI); details: Compound concentration 3.0 uM
[6] = target: Phosphatidylinositol 4-kinase alpha (Homo sapiens) (UniProt P42356); test: PI4KA Invitrogen selectivity data (BI); details: Compound concentration 3.0 uM
[7] = target: T1, Serine/threonine-protein kinase D3 (Homo sapiens) (UniProt O94806); test: PRKCN Invitrogen selectivity data (BI); details: Compound concentration 3.0 uM
T1 sequence (whole entry): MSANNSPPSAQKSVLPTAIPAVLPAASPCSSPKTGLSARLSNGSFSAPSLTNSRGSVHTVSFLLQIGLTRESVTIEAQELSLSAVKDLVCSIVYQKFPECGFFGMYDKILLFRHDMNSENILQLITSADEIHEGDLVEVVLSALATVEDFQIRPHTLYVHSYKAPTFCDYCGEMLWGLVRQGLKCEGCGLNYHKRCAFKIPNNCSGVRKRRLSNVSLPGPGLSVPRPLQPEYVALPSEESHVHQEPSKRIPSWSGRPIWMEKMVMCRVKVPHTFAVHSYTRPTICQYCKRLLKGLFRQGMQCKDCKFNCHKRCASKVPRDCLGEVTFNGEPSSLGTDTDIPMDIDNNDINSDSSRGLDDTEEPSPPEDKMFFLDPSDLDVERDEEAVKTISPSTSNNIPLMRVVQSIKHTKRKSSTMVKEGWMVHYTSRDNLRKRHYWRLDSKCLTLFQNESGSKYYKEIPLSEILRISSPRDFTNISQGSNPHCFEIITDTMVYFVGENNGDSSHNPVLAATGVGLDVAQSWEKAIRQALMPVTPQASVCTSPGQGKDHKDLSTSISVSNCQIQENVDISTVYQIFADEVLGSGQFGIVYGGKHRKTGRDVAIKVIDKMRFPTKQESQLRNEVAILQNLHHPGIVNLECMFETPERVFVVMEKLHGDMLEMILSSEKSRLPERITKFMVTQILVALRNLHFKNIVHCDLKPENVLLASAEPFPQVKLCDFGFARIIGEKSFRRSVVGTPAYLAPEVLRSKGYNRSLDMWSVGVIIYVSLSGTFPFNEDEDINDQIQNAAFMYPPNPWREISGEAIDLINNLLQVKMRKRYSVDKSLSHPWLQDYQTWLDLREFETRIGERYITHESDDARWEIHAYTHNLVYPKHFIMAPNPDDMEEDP

[8] = target: T2, cGMP-dependent protein kinase 2 (Homo sapiens) (UniProt Q13237); test: PRKG2 Invitrogen selectivity data (BI); details: Compound concentration 3.0 uM
T2 sequence (whole entry): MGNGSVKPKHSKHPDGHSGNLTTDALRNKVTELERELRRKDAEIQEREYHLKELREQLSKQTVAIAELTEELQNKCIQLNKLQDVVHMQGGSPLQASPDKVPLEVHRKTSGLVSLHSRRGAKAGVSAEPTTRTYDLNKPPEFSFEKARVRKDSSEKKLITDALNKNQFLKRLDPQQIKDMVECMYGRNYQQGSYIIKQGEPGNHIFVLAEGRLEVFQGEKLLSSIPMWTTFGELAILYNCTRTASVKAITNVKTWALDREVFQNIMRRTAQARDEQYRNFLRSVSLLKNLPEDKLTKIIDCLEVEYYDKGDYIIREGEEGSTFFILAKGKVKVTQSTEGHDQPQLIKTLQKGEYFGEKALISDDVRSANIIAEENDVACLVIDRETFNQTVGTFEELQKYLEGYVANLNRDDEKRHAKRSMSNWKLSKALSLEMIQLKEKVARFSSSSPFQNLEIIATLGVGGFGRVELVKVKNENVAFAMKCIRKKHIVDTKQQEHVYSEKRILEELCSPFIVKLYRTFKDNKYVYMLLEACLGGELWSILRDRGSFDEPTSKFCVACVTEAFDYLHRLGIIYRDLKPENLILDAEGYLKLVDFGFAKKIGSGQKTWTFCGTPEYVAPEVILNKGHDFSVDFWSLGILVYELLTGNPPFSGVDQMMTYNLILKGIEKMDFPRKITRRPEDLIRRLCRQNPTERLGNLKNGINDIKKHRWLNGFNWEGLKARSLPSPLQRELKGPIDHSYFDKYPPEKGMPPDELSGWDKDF

[9] = target: Tyrosine-protein kinase Srms (Homo sapiens) (UniProt Q9H3Y6); test: SRMS Invitrogen selectivity data (BI); details: Compound concentration 3.0 uM

Measured: residual activity

Chain of Cannabinoid receptor 1 (Homo sapiens) (P21554 whole entry): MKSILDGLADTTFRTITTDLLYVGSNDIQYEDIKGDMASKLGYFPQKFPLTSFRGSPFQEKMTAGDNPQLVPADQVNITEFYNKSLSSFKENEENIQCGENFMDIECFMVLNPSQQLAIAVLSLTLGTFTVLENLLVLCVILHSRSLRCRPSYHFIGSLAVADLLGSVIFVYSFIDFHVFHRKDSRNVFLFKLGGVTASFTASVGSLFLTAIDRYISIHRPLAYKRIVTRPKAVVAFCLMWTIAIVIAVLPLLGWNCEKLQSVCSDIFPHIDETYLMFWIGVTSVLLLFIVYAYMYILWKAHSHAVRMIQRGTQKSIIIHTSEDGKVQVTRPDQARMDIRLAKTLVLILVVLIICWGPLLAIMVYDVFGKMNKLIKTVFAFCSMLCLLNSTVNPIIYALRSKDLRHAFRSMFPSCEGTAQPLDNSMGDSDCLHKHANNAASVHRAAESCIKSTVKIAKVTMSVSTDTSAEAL
Chain of Tyrosine-protein kinase Srms (Homo sapiens) (Q9H3Y6 whole entry): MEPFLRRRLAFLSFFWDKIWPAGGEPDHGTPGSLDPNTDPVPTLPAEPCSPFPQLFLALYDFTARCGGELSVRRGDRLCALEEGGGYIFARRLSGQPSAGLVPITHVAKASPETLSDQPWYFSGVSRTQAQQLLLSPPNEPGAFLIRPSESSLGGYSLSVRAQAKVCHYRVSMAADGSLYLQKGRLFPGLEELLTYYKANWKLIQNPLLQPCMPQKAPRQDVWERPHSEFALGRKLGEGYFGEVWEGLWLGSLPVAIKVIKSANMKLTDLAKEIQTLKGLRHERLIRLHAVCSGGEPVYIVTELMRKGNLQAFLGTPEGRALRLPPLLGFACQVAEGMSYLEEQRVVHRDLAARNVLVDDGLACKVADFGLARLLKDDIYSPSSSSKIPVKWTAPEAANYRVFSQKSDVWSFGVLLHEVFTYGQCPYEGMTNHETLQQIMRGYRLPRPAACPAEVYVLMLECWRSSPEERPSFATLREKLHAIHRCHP
Chain of Homeodomain-interacting protein kinase 1 (Homo sapiens) (Q86Z02 whole entry, looked up, the tested form may be a part): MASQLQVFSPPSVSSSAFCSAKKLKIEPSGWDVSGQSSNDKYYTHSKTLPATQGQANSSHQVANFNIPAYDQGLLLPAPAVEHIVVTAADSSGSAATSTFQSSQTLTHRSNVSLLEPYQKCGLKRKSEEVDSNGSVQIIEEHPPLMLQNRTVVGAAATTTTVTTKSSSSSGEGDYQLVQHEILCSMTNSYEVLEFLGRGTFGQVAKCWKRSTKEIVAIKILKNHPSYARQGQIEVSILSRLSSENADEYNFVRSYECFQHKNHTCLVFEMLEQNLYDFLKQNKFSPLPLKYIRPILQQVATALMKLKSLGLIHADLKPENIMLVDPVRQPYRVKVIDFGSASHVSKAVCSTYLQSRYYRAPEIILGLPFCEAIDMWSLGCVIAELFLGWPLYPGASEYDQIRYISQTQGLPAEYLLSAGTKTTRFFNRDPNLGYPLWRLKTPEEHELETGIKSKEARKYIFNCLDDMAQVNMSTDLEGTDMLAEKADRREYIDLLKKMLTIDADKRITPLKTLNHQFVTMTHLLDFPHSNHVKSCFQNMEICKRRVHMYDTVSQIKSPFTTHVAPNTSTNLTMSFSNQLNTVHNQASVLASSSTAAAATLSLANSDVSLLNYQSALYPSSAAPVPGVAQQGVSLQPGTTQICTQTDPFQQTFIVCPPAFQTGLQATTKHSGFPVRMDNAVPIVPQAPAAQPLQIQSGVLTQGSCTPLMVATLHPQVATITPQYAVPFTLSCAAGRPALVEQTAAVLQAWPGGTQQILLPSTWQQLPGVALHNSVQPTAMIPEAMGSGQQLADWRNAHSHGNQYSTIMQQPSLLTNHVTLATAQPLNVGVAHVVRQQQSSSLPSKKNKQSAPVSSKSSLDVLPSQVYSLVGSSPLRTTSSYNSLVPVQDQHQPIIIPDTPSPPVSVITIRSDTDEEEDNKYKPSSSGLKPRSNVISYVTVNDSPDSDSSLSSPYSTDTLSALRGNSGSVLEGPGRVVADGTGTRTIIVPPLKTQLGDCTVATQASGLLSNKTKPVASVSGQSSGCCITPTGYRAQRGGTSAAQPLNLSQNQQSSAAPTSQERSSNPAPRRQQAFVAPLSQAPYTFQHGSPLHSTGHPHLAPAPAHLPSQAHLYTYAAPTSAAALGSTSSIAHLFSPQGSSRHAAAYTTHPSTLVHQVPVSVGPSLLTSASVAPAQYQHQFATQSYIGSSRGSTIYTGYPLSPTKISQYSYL
Chain of Tyrosine-protein kinase Fer (Homo sapiens) (P16591 whole entry, looked up): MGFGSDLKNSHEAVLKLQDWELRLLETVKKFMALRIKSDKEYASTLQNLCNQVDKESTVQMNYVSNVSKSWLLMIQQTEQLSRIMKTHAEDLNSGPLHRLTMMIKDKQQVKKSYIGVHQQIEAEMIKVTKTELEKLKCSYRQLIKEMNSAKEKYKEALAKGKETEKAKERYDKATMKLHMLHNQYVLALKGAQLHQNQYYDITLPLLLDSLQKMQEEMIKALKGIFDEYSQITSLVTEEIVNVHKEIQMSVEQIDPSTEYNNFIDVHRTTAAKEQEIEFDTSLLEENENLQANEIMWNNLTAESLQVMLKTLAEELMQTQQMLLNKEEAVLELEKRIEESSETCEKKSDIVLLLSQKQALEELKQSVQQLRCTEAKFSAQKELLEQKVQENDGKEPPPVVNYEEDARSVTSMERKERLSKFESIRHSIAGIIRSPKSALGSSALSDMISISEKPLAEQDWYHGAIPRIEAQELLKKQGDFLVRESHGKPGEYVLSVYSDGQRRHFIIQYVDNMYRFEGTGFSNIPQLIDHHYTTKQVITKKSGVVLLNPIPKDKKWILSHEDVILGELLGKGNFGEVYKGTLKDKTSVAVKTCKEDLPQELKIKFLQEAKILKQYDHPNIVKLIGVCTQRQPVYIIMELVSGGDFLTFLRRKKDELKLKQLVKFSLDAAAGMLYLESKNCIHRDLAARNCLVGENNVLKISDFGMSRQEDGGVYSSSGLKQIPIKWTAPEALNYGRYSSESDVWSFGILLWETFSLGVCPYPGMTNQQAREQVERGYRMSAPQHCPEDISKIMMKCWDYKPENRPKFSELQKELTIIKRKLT
Chain of LIM domain kinase 1 (Homo sapiens) (P53667 whole entry, looked up, the tested form may be a part): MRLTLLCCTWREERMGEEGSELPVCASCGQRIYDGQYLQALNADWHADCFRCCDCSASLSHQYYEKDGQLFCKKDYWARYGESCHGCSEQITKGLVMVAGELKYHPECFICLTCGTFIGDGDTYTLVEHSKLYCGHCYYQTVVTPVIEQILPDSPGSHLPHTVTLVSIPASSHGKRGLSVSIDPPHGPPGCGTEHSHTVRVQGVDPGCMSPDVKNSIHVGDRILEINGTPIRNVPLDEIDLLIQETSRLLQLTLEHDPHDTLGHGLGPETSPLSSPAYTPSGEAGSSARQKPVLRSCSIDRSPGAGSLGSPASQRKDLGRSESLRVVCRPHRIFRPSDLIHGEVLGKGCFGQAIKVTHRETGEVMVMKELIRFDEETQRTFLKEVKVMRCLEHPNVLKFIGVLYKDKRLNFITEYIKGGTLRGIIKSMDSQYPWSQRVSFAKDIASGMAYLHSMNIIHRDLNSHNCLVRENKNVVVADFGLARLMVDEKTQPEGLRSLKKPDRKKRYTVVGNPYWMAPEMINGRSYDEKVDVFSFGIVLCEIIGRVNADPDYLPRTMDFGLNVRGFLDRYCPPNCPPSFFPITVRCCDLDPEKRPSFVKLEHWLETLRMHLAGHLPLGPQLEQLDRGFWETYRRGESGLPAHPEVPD
Chain of B2 bradykinin receptor (Homo sapiens) (P30411 whole entry): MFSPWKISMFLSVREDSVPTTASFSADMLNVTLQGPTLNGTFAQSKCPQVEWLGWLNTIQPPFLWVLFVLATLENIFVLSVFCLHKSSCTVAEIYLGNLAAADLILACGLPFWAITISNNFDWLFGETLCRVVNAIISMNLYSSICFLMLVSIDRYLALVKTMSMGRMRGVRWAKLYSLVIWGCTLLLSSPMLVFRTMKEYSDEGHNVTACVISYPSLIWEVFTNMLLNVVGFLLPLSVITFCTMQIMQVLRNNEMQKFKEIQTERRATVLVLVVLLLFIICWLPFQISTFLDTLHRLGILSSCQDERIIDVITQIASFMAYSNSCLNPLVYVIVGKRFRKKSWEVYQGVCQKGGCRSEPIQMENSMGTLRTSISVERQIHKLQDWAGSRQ

CN(C)C(=O)Cn1cc(-c2nc([C@@](C)(c3ccc(-c4cnc(N)nc4)cc3)C3CC3)no2)cn1 [BI 665915]
inactive: [1] 102% | [2] 88% | [3] 98.5% | [4] 97% | [5] 96% | [6] 106% | [7] 94.5% | [8] 92.5% | [9] 98.5%
